Results taken from patent publication US5994359A, “Imino oxyphenyl acetic acid derivatives, methods and intermediates for their preparation and use thereof” (BASF Aktiengesellschaft, priority 1995, dated 1999).

These compounds were tested on mitochondria of the yeast Saccharomyces cerevisiae (assay: Inhibition of mitochondrial respiration (photometric cytochrome c reduction rate in isolated mitochondria)). Settings: Saccharom. cerevisiae mitochondria; relative to reference substance enol ether stilbene.
Format: biochemical
Excerpt: To determine the effect of the compounds according to the invention on mitochondrial respiration, it is first necessary to isolate the mitochondria from the test organisms. In the case of the yeast Saccharomyces cerevisiae, a 30 to 40% cell suspension of the fungus is disrupted, to this end, in an aqueous solution of 0.6 M Mannitol+0.01 M tris[hydroxymethyl]aminomethane+0.002 M disodium ethylenediaminetetraacetate (pH 6.8) using a glass bead mill, and the extract is fractionated by means of differential centrifugation at 1000×g and 12000×g. The mitochondria are in the precipitate of the 12000×g centrifugation.
The effect of the compounds on the respiration chain is determined by adding a solution of the test compound in dimethyl sulfoxide to a suspension of mitochondria in an aqueous solution of 0.01 M tris[hydroxymethyl]aminomethane+0.65 M sorbitol+0.01 M KH2 PO4 +0.01 M KCl+0.0004 M disodium ethylenediamine-tetraacetate+0.3% bovine serum albumin+0.0007 M KCN+6×10^-6 ubiquinone-50+0.01 M sodium succinate+0.15% cytochrome c (pH 7.5), and the reduction rate of the cytochrome c is determined photometrically on the basis of the increased absorption at 546 nm. A batch with a corresponding amount of pure DMSO is used as control. The inhibitory value for the active ingredient at the concentration shown in each case is then calculated as follows. [formula] where ΔE is the difference in absorption, At the difference in time, [formula]
In the table which follows, the action of a series of compounds according to the invention as respiration inhibitors on the mitochondria of the yeast Saccharomyces cerevisiae, the phyto-pathogenic fungus Drechslera sorokiniana and the common housefly Musca domestics.
In each case, the inhibition of mytochondrial respiration is given as I50 value (this being the concentration of test substance where a 50% inhibition is observed) and as F value, this being a relative value defined as follows: [formula]
The reference substance is the so-called enol ether stilbene, of the following formula: [drawing 80]

Compound	F value (relative value)
CON=C(C(=O)OC)c1ccccc1ON=C(C)c1cccc(C)c1 [I(1).1, methyl methoxyimino-[2-(1-meta-tolylethylideneaminooxy)phenyl]acetate]	0.96
CNC(=O)C(=NOC)c1ccccc1ON=C(C)c1cccc(C)c1 [I(1).2, 2-methoxyimino-N-methyl-2-[2-(1-meta-tolylethylideneamino-oxy)phenyl]acetamide]	11
CON=C(C)C(C)=NOc1ccccc1C(=NOC)C(=O)OC [I(2).2, methyl methoxyimino-[2-(2-methoxyimino-1-methylpropylideneaminooxy)phenyl]acetate]	0.43
CNC(=O)C(=NOC)c1ccccc1ON=C(C)C(C)=NOC [I(2).3, N-methyl-methoxyimino-[2-(2-methoxyimino-1-methylpropylideneaminooxy)phenyl]acetamide]	9.6

The compounds below were run on Aphis fabae (assay: Aphis fabae (blackbean aphid), contact action). Settings: infested dwarf beans (Vicia faba), mortality after 24 hours, read-out: limit concentration (lowest concentration still causing 80-100% inhibition or mortality).
Format: in vivo
Excerpt: (§1) The active ingredients were formulated
(§2) a) as a 0.1% strength solution in acetone or
(§3) b) as a 10% emulsion in a mixture of 70% by weight of cyclohexanol, 20% by weight of Nekanil® LN (Lutensol® AP6, wetting agent having emulsifying and dispersant action based on ethoxylated alkylphenols) and 10% by weight of Emulphor® EL emulsifier based on ethoxylated fatty alcohols)
(§4) and diluted to give the desired concentraton, using acetone in the case of a) and water in the case of b).
(§5) After the experiments had been concluded, in each case the lowest concentration at which the compounds still caused an 80-100% inhibition or mortality in comparison with untreated controls was determined (limit or minimum concentration).
Severely infested dwarf beans (Vicia faba) were treated with the aqueous preparation of active ingredient. After 24 hours, the mortality rate was determined.

Compound	minimal effective concentration
CCON=C(C)C(C)=NOc1ccccc1C(=NOC)C(=O)OC [I(2).9]	200 µg/mL

These compounds were tested on Heliothis virescens (assay: Heliothis virescens (tobacco budworm), contact/stomach action). Settings: tobacco plants, 3rd instar larvae, mortality and antifeeding effect after 48 hours, read-out: limit concentration (lowest concentration still causing 80-100% inhibition or mortality).
Format: in vivo
Excerpt: as §1, §2, §3, §4, §5
Tobacco plants approximately 10 cm high were treated with the aqueous preparation of active ingredient. After the plants had dried, they were populated with in each case 10 3rd instar larvae. Mortality and antifeeding effect were assessed after 48 hours.

Compound	minimal effective concentration
C#CCON=C(C)C(C)=NOc1ccccc1C(=COC)C(=O)OC [I(2).17]	40 µg/mL

These compounds were tested on Tetranychus telarius (assay: Tetranychus telarius (greenhouse red spider mite), contact action). Settings: 120 h, infested dwarf beans in pots, assessed after 5 days in the greenhouse, read-out: limit concentration (lowest concentration still causing 80-100% inhibition or mortality).
Format: in vivo
Excerpt: as §1, §2, §3, §4, §5
After 5 days in the greenhouse, the result of the control measures was determined by means of a stereomicroscope.

Compound	minimal effective concentration
COC=C(C(=O)OC)c1ccccc1ON=C(C)C(C)=NOC(C)C [I(2).6]	≤ 200 µg/mL
CCC(=NOC)C(C)=NOc1ccccc1C(=COC)C(=O)OC [I(2).20]	≤ 200 µg/mL
CCON=C(C)C(C)=NOc1ccccc1C(=COC)C(=O)OC [I(2).15]	≤ 200 µg/mL
CCC(=NOC)C(C)=NOc1ccccc1C(=NOC)C(=O)OC [I(2).21]	≤ 200 µg/mL
COC=C(C(=O)OC)c1ccccc1ON=C(C)C(C)=NOC [I(2).7, methyl 3-methoxy-[2-(2-methoxyimino-1-methyl-propylideneaminooxy)phenyl]acrylate]	≤ 200 µg/mL
C#CCON=C(C)C(C)=NOc1ccccc1C(=COC)C(=O)OC [I(2).17]	≤ 200 µg/mL
CCON=C(C)C(C)=NOc1ccccc1C(=NOC)C(=O)OC [I(2).9]	≤ 200 µg/mL
CNC(=O)C(=NOC)c1ccccc1ON=C(C)C(C)=NOC(C)C [I(2).8]	≤ 200 µg/mL
CCC(=NOc1ccccc1C(=COC)C(=O)OC)C(C)=NOC [I(2).14]	≤ 200 µg/mL
CCC(=NOC)C(C)=NOc1ccccc1C(=NOC)C(=O)NC [I(2).19]	≤ 200 µg/mL
CON=C(C)C(C)=NOc1ccccc1C(=NOC)C(=O)OC [I(2).2, methyl methoxyimino-[2-(2-methoxyimino-1-methylpropylideneaminooxy)phenyl]acetate]	≤ 200 µg/mL
C#CCON=C(C)C(C)=NOc1ccccc1C(=NOC)C(=O)OC [I(2).16]	≤ 200 µg/mL
CON=C(C(=O)OC)c1ccccc1ON=C(C)C(C)=NOC(C)C [I(2).13]	≤ 200 µg/mL
